Experimental findings from BindingDB's records for PubMed 11546835 (Mcgill University, 2001) are described below.

Several values for one entry are separate records, joined by “and”; a condition that tells them apart may be missing. Equal entries are not always repeated. Residues, ends and D or L forms follow the SMILES beside them.

The target in the experiment is Nociceptin receptor (Mus musculus, UniProt P35377).
Nociceptin receptor, sequence (P35377 whole entry): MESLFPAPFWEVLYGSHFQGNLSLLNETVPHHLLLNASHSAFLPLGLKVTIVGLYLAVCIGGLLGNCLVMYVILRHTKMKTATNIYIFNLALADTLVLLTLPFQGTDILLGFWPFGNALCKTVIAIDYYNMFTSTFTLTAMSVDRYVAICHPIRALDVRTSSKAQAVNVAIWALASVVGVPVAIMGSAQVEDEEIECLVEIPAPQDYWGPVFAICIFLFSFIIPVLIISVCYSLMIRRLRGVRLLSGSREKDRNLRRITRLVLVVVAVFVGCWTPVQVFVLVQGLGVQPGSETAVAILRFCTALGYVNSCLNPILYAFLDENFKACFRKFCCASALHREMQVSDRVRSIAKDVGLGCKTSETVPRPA
As a reminder, the Ki is the dissociation constant of the complex between target and ligand, obtained from inhibition or displacement. Molecule `CSCC[C@H](NC(=O)[C@H](Cc1ccccc1)NC(=O)CNC(=O)CNC(=O)[C@@H](N)Cc1ccc(O)cc1)C(=O)O` [2-[(S)-2-(2-{2-[(S)-2-Amino-3-(4-hydroxy-phenyl)-propionylamino]-acetylamino}-acetylamino)-1-oxo-3-phenyl-propylamino]-4-methylsulfanyl-butyric acid] had an inhibition constant (Ki) of 1 µM.

Consider `Oc1ccc2c3c1OC1c4[nH]c5c(c4CC4(O)CN(CCC314)C(C1CC1)C2)CC1(O)CN2CCC13c1c(ccc(O)c1OC53)CC2C1CC1` (stereo not given) [CAS_105618-26-6], for which the Ki is 0.898 µM and 7.5 µM.

The molecule `CC(C)C[C@H](NC(=O)[C@H](Cc1ccccc1)NC(=O)CNC(=O)CNC(=O)[C@@H](N)Cc1ccc(O)cc1)C(=O)N[C@@H](CCCNC(=N)N)C(=O)N[C@@H](CCCCN)C(=O)N[C@@H](Cc1ccc(O)cc1)C(=O)N1CCC[C@H]1C(=O)N[C@@H](CCCCN)C(=O)O` [CB0427223] (H-YGGFLRKYPK-OH) showed a Ki of 0.192 µM.

On to `CC(C)C[C@H](NC(=O)[C@H](Cc1ccccc1)NC(=O)CNC(=O)CNC(=O)[C@@H](N)Cc1ccc(O)cc1)C(=O)N[C@@H](CCCN=C(N)N)C(=O)N[C@@H](CCCN=C(N)N)C(=O)N[C@@H](CCC(N)=O)C(=O)N[C@@H](Cc1ccccc1)C(=O)N[C@@H](CCCCN)C(=O)N[C@H](C(=O)N[C@H](C(=O)N[C@H](C(=O)O)[C@@H](C)O)C(C)C)C(C)C` [Dynorphin B (1-13)], for which the Ki is 0.0339 µM and 0.247 µM.

Take `C[C@H](NC(=O)CNC(=O)[C@@H](NC(=O)[C@H](Cc1ccccc1)NC(=O)CNC(=O)CNC(=O)[C@@H](N)Cc1ccccc1)[C@@H](C)O)C(=O)O` [OFQ/N (1-7)] (H-FGGFTGA-OH): the Ki was 0.44 µM and 0.36 µM.
